In paper PMC12612990, “PNA5, a glycosylated angiotensin-(1−7) mas receptor agonist for vascular dementia: A two species toxicology and toxicokinetic study” (Toxicology Reports, 2025):
Peptide text beside a SMILES is read from it. * marks the point of attachment. βGlc = OC[C@H]1O[C@@H](*)[C@H](O)[C@@H](O)[C@@H]1O

Legend:
male Sprague Dawley rats [1] = assay: Pulmonary safety parameters after a single subcutaneous dose in male Sprague Dawley rats; format: in vivo, rat; conditions: single s.c. dose 1, 5 or 40 mg/kg, n = 8 per group
Description: Respiratory rate, tidal volume, and calculated minute volume were measured in male Sprague Dawley rats to measure pulmonary safety parameters after a single subcutaneous dose of 0, 1, 5, or 40 mg/kg PNA5 (n = 8 males per group).

male Sprague Dawley rats [2] = assay: Neurobehavioral evaluations after a single subcutaneous dose in male Sprague Dawley rats; format: in vivo, rat; conditions: single s.c. dose 1, 5 or 40 mg/kg, n = 8 per group
Description: To evaluate the effects of PNA5 when administered subcutaneously on the central nervous system’s autonomic, neuromuscular, sensorimotor, and behavioral domains, neurobehavioral evaluations were performed in male Sprague Dawley rats treated with PNA5 at 0, 1, 5, or 40 mg/kg (n = 8 males per group). The neurobehavioral evaluations consisted of assessments of the central nervous system for activity, excitability, autonomic function, neuromuscular function, sensorimotor responses, and physiological function.

[3] = Toxicokinetics of PNA5 in Sprague Dawley rat plasma; conditions: for AUC(0-t) / Cmax / half-life / Tmax: both, Sprague Dawley, rat, sc; for AUC(0-t) / Cmax / half-life / Tmax / Kel: plasma; for AUC(0-t): AUC0–2, rats, n = 6, linear trapezoidal; for AUC(0-t) / Cmax / half-life / Kel: mean ± SD; for Cmax: Sprague Dawley rats, n = 6, UHPLC-MS/MS, noncompartmental; for half-life: n = 6, Ln(2)/Kel; for AUC0–2hr averaged accumulation ratio: day 1 to day 28, sexes combined; for F:M AUC0–2hr ratio: printed as on day 1; for fold increase in AUC0–2hr for a 40-fold increase in dose / fold increase in Cmax for a 40-fold increase in dose: 1 to 40 mg/kg/day; for Kel: n = 6, exponential regression
Description: Toxicokinetic (TK) of PNA5 was obtained from plasma following a single and repeated subcutaneous injection administration of PNA5 once daily for 28 days. Blood samples were collected on days 1 and 28 at the following time points: pre-dose and at approximately 5, 15, 30, 60, and 120 min post-dose (equivalent to 0.083, 0.25, 0.5, 1, and 2 h).
For the rat study, a total of 6 rats for each sex were assigned randomly to treatment groups 2–4 (those treated with PNA5). Three rats per sex were assigned to group 1 (vehicle control). Rats were sampled in satellite groups; rats' blood was taken at alternating time points, resulting in a total n = 3 per time point for six animals. For the dog study, three animals per sex were assigned to group 2 and group 3, and five animals per sex were assigned to group 1 and group 4. Blood was collected from canines via venipuncture.
Blood was collected in heparinized tubes containing a protease inhibitor cocktail consisting of 4 mM 0-phenanthroline, 1.2 mM pepstatin A, and 0.5 M EDTA. Blood samples were centrifuged for 15 min at 2500 x g at room temperature. Plasma was transferred into pre-cooled, pre-labeled collection tubes, frozen immediately in liquid nitrogen/dry ice, and stored at −80 °C until analysis.
PNA5 levels were analyzed using ultra-high performance liquid chromatography (UHPLC) with tandem mass spectrometric (MS/MS) detection. Precision and accuracy, reproducibility, selectivity, carryover, recovery, matrix effects, dilution integrity, hemolysis, stock stability, and matrix stability were assessed prior to initiation of the validation. Samples (5 µL) were injected onto the column and separated using gradient elution. Target compounds were quantified by summing the height of previously identified fragment peaks in the LC-MS [3] spectra. The serum concentrations were estimated using a calibration curve, accounting for the dilution factors and the probe recoveries for each experiment. Standards were matrix-matched to samples and underwent the same sample preparation steps.
A noncompartmental analysis was used for parameter estimation. For PNA5 in plasma, the extravascular model was used for parameter estimation. For the rat study, all parameters were generated from PNA5 individual concentrations in plasma from days 1 and 28. Parameters were estimated using nominal dose levels and nominal sampling times relative to the dose administration. Plasma concentration values obtained at the pre-dose time point were used as the concentration at time 0 on days 1 and 28. For the dog study, all parameters were generated from PNA5 individual concentrations in plasma from days 1 and 28. Parameters were estimated using nominal dose levels and nominal sampling times relative to dose administration. Plasma concentration values obtained at the pre-dose time point were used as the concentration at time 0 on days 1 and 28. For Beagle dogs, concentration values reported as below the limit of quantitation (< 5 ng/mL) were assigned a value of 0.
The toxicokinetic parameters evaluated included the area under the curve of the plasma PNA5 concentration against time from time 0 (pre-dose) to 2 h (post-dose) (AUC0–2hr), the maximum plasma concentration (Cmax), time to maximum plasma concentration (Tmax), elimination rate (Kel), and the half-life. The area under the concentration vs. time curve was calculated using the linear trapezoidal method with linear interpolation for all profiles with at least three consecutive quantifiable concentrations. Kel was calculated from the slope using exponential regression of concentration versus time (Excel); exponential interpolations for all profiles include at least three concentrations plotted against time. Time 0 values and all concentrations listed as zero were excluded from Kel calculations. The half-life was calculated from Kel via the following equation: half-life Ln(2)/Kel.

Beagle dogs = assay: 28-day repeat-dose subcutaneous toxicology study (main and recovery) in Beagle dogs
[4] = dogs, 1, 5, 20 mg/kg/day s.c. for 28 days
[5] = dogs, main study, day 29 necropsy

In the case of `CC[C@H](C)[C@H](NC(=O)[C@H](Cc1ccc(O)cc1)NC(=O)[C@@H](NC(=O)[C@H](CCCNC(=N)N)NC(=O)[C@@H](N)CC(=O)O)C(C)C)C(=O)N[C@@H](Cc1c[nH]cn1)C(=O)N[C@@H](CO[C@@H]1O[C@H](CO)[C@@H](O)[C@H](O)[C@H]1O)C(N)=O` [PNA5, Ang-1–6-Ser-O-Glu-NH2] (H-DRVYIHS(βGlc)-NH2), the “respiratory rate, tidal volume and calculated minute volume” value (male Sprague Dawley rats [1]) is reported as “no effect”, the “neurobehavioral assessments of the central nervous system (activity, excitability, autonomic, neuromuscular, sensorimotor, physiological function)” value (male Sprague Dawley rats [2]) is reported as “nor were there observed PNA5-related effects” and the AUC(0-t) ([3]; 1 mg/kg/day, s.c. 1 mg/kg/day, day 1, sexes combined) is reported as 0.263 ± 0.0315 ng·h/mL. It also gave an AUC(0-t) ([3]; 1 mg/kg/day, s.c. 1 mg/kg/day, day 28, sexes combined) of 0.464 ± 0.0741 ng·h/mL, a Cmax ([3]; 1 mg/kg/day, s.c. once daily 1 mg/kg/day, day 1, sexes combined) of 0.591 ± 0.25 ng/mL and a Cmax ([3]; 1 mg/kg/day, s.c. once daily 1 mg/kg/day, day 28, sexes combined) of 0.968 ± 0.28 ng/mL. For the same compound, the half-life ([3]; 1 mg/kg/day, rats, s.c. 1 mg/kg/day, day 1, sexes combined) was 36 ± 6 min, the half-life ([3]; 1 mg/kg/day, rats, s.c. 1 mg/kg/day, day 28, sexes combined) was 30.6 ± 9 min and the Tmax ([3]; 1 mg/kg/day, rats, s.c. 1 mg/kg/day, day 1, sexes combined, average (range lowest to highest)) was 6.6 min. The Tmax ([3]; 1 mg/kg/day, rats, s.c. 1 mg/kg/day, day 28, sexes combined, average (range lowest to highest)) was 10.2 min, the AUC(0-t) ([3]; 5 mg/kg/day, s.c. 5 mg/kg/day, day 1, sexes combined) was 1.55 ± 0.789 ng·h/mL and the AUC(0-t) ([3]; 5 mg/kg/day, s.c. 5 mg/kg/day, day 28, sexes combined) was 2.86 ± 1.72 ng·h/mL. It also gave a Cmax ([3]; 5 mg/kg/day, s.c. once daily 5 mg/kg/day, day 1, sexes combined) of 3.37 ± 1.99 ng/mL, a Cmax ([3]; 5 mg/kg/day, s.c. once daily 5 mg/kg/day, day 28, sexes combined) of 5.35 ± 2.77 ng/mL and a half-life ([3]; 5 mg/kg/day, rats, s.c. 5 mg/kg/day, day 1, sexes combined) of 25.2 ± 7.8 min. The half-life ([3]; 5 mg/kg/day, rats, s.c. 5 mg/kg/day, day 28, sexes combined) was 22.2 ± 7.8 min, the Tmax ([3]; 5 mg/kg/day, rats, s.c. 5 mg/kg/day, day 1, sexes combined, average) was 4.98 min and the Tmax ([3]; 5 mg/kg/day, rats, s.c. 5 mg/kg/day, day 28, sexes combined, average (range lowest to highest)) was 11.4 min. For the same compound, the AUC(0-t) ([3]; 40 mg/kg/day, s.c. 40 mg/kg/day, day 1, sexes combined) was 16.1 ng·h/mL, the AUC(0-t) ([3]; 40 mg/kg/day, s.c. 40 mg/kg/day, day 28, sexes combined) was 29.6 ng·h/mL and the Cmax ([3]; 40 mg/kg/day, s.c. once daily 40 mg/kg/day, day 1, sexes combined) was 40.8 ng/mL. It also gave a Cmax ([3]; 40 mg/kg/day, s.c. once daily 40 mg/kg/day, day 28, sexes combined) of 62.5 ng/mL, a half-life ([3]; 40 mg/kg/day, rats, s.c. 40 mg/kg/day, day 1, sexes combined) of 19.8 ± 4.8 min and a half-life ([3]; 40 mg/kg/day, rats, s.c. 40 mg/kg/day, day 28, sexes combined) of 23.4 ± 3.6 min. For the same compound, the Tmax ([3]; 40 mg/kg/day, rats, s.c. 40 mg/kg/day, day 1, sexes combined, average (range lowest to highest)) was 8.4 min, the Tmax ([3]; 40 mg/kg/day, rats, s.c. 40 mg/kg/day, day 28, sexes combined, average (range lowest to highest)) was 10.2 min and the “AUC0–2hr averaged accumulation ratio” value ([3]; rats, 1 mg/kg/day) was 1.76. For the same compound, the “F:M AUC0–2hr ratio” value ([3]; rats, 5 mg/kg/day) was 0.66–1.58, the “AUC0–2hr averaged accumulation ratio” value ([3]; rats, 40 mg/kg/day) was 1.84 and the “F:M AUC0–2hr ratio” value ([3]; rats, 40 mg/kg/day) was 1.16–1.32. For the same compound, the “fold increase in AUC0–2hr for a 40-fold increase in dose” value ([3]; rats, day 1, sexes combined) was about 61.22 fold, the “fold increase in Cmax for a 40-fold increase in dose” value ([3]; rats, day 1, sexes combined) was about 69.09 fold and the “fold increase in AUC0–2hr for a 40-fold increase in dose” value ([3]; rats, day 28, sexes combined) was about 63.93 fold. For the same compound, the “fold increase in Cmax for a 40-fold increase in dose” value ([3]; rats, day 28, sexes combined) was about 64.56 fold, the “F:M Cmax ratios” value ([3]; rats, day 28, range across doses) was 1.24 – 1.37 and the Kel ([3]; rats, s.c. 1 mg/kg/day, day 1, sexes combined) was 1.18 ± 0.18, 6 hr–1. The Kel ([3]; rats, s.c. 5 mg/kg/day, day 1, sexes combined) was 1.79 ± 0.67, 6 hr–1, the Kel ([3]; rats, s.c. 5 mg/kg/day, day 28, sexes combined) was 2.08 ± 0.86, 6 hr–1 and the Kel ([3]; rats, s.c. 40 mg/kg/day, day 1, sexes combined) was 2.24 ± 0.83, 6 hr–1. For the same compound, the Kel ([3]; rats, s.c. 40 mg/kg/day, day 28, sexes combined) was 1.82 ± 0.28, 6 hr–1, the “time post-dose up to which PNA5 plasma concentrations were quantifiable” value ([3]; rats, s.c. 1, 5 or 40 mg/kg/day, day 1 and day 28, last sampling time 2 h) was “up to 2 h” and the “tolerability (mortality, adverse findings)” value (Beagle dogs; Beagle dogs, main and recovery studies, s.c. bolus once daily 28 days, 1, 5, 20 mg/kg/day) was “well tolerated at all doses with no effects on mortality or adverse findings”. For the same compound, the “no-observed-adverse-effect-level (NOAEL)” value (Beagle dogs; Beagle dogs, s.c. once daily for 28 days) was 20 mg/kg/day, the “body weights and body weight gains” value (Beagle dogs; [4]) was “unaffected” and the clinical observations (Beagle dogs; [4]) was “no test article-related clinical observations”. The electrocardiography (Beagle dogs; [4]) was “no test article-related clinical observations or effects”, the food consumption (Beagle dogs; [4]) was “unaffected” and the organ weights (Beagle dogs; [4]) was “no test article-related clinical observations or effects”. The survival (Beagle dogs; dogs, 1, 5 and 20 mg/kg/day s.c. for 28 days) was “All animals survived until the scheduled euthanasia”, the ophthalmic examinations (Beagle dogs; dogs, all test article-treated groups) was “No ophthalmic lesions indicative of toxicity were observed” and the “hematology, coagulation, clinical chemistry and urinalysis parameters” value (Beagle dogs; dogs, main study) was “unaffected”. The macroscopic findings (Beagle dogs; [5]) was “No test article-related macroscopic findings were noted”, the microscopic findings (Beagle dogs; [5]) was “No test article-related microscopic findings were noted” and the macroscopic findings (Beagle dogs; dogs, recovery study, day 43) was “No test article-related macroscopic findings were noted”. The microscopic findings (Beagle dogs; dogs, recovery study, day 43) was “No test article-related microscopic findings were noted”, the organ weights (Beagle dogs; dogs, recovery study, day 43) was “no test article-related organ weight changes” and the “subcutaneous injection sites with dark red subcutaneous foci” value (Beagle dogs; dogs, treated group animals, main study, lacked a dose response, considered an effect of subcutaneous injection) was 5 of 96.
